Patent publication US9365576B2, “Pyrrolopyrrolidinone compounds” (Novartis AG, priority 2012, dated 2016)

Legend:
Assay type in all cases: binding
[1] = biological target: T1, human MDM2 protein (amino acids 2-188) (Homo sapiens (Human), UniProt Q00987); assay: TR-FRET assay, p53-MDM2 Assay 1; details: 1.25 nM MDM2-biotinylated, 10 nM Cy5-p53 peptide
Method: (§1) The inhibition of p53-MDM2 and p53-MDM4 interactions is measured by time resolved fluorescence energy transfer (TR-FRET). Fluorescence energy transfer (or Foerster resonance energy transfer) describes an energy transfer between donor and acceptor fluorescent molecules. For this assay, human MDM2 protein (amino acids 2-188) and human MDM4 protein (amino acids 2-185), tagged with a C-terminal biotin moiety, are used in combination with a Europium labeled streptavidin (Perkin Elmer, Inc., Waltham, Mass., USA) serving as the donor fluorophore. The p53 derived, Cy5 labeled peptide Cy5-TFSDLWKLL (p53 aa18-26) is the energy acceptor. Upon excitation of the donor molecule at 340 nm, binding interaction between MDM2 or MDM4 and the p53 peptide induces energy transfer and enhanced response at the acceptor emission wavelength at 665 nm. Disruption of the formation of the p53-MDM2 or p53-MDM4 complex due to an inhibitor molecule binding to the p53 binding site of MDM2 or MDM4 results in increased donor emission at 620 nm. The ratiometric FRET assay readout is calculated from the raw data of the two distinct fluorescence signals measured in time resolved mode (fluorescence 665 nm/fluorescence 620 nm×1000).
(§2) After addition of 1.25 nM MDM2-biotinylated or 2.5 nM MDM4-biotinylated (internal preparations), and 0.625 nM Europium labeled streptavidin (Perkin Elmer), the solution is pre-incubated for 15 minutes at room temperature, then 10 nM Cy5-p53 peptide (internal preparation) is added before an incubation at room temperature for 15 minutes prior to reading the plate. For measurement of samples, a Victor II microplate reader (Perkin Elmer) is used with the following settings: Excitation 340 nm, Emission Donor 620 nm and Emission Acceptor 665 nm. IC50 values are calculated by curve fitting using XLfit. If not specified, reagents are purchased from Sigma-Aldrich Chemie GmBH, Buchs, Switzerland.
(§3) This assay was used to evaluate compounds displaying inhibition of p53-MDM2 interaction and p53-MDM4 interaction at IC50s of 0.005 to 50 μM (p53-MDM2 Assay 1 and p53-MDM4 Assay 1, respectively). For selected compounds displaying IC50s between […] on MDM2, a slightly modified assay is used with the following adaptations: 0.1 nM MDM2, 0.1 nM Europium labeled streptavidin and Tecan genios Pro is used as a microplate reader for the fluorescence measurements (p53-MDM2 Assay 2).

[2] = biological target: human MDM4 protein (amino acids 2-185) (Homo sapiens (Human), UniProt O15151); assay: TR-FRET assay, p53-MDM4 Assay 1; details: 2.5 nM MDM4-biotinylated, 10 nM Cy5-p53 peptide
Method: as §1, §2, §3

[3] = biological target: T1, human MDM2 protein (amino acids 2-188); assay: TR-FRET assay, p53-MDM2 Assay 2 (modified); details: TR-FRET; 0.1 nM MDM2, 0.1 nM Europium labeled streptavidin, Tecan genios Pro reader; read-out: IC50 p53-MDM2 Assay 2
Method in brief: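 Biotinylated human MDM2 (aa 2–188, 1.25 nM) was preincubated 15 min at room temperature with 0.625 nM Eu-streptavidin, then 10 nM Cy5-p53 peptide (aa 18–26) added for 15 min. TR-FRET ratio 665/620 nm (excitation 340 nm) was read; IC50 came from curve fitting.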

T1 sequence (Q00987 2-188): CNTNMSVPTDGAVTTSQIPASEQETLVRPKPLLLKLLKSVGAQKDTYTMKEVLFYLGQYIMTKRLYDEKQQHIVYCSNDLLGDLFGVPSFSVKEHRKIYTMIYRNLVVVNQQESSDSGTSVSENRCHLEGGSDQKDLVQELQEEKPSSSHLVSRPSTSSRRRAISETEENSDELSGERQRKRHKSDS
Chain of human MDM4 protein (amino acids 2-185) (O15151 2-185): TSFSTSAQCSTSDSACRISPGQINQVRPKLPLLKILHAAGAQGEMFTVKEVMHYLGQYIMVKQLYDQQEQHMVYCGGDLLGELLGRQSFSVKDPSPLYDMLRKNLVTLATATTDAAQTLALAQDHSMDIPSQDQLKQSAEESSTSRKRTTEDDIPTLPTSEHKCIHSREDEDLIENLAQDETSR

Row | Compound | IC50 [1] [nM] | IC50 [2] [nM] | IC50 [3] [nM]
1 | COc1nc(N)ncc1-c1cc2c(n1C(C)C)C(c1ccc(Cl)cc1)N(C1CCOCC1)C2=O (stereo not drawn) [Example 78, 2-(2-Amino-4-methoxy-pyrimidin-5-yl)-6-(4-chloro-phenyl)-1-isopropyl-5-(tetrahydro-pyran-4-yl)-5,6-dihydro-1H-pyrrolo[3,4-b]pyrrol-4-one] | 8.5 | 14000 | 5.08
2 | COc1ccccc1-c1cc2c(n1C(C)C)C(c1ccc(Cl)cc1C)N([C@H]1CC[C@H](O)CC1)C2=O (stereo partly drawn) [Example 101, 6-(4-Chloro-2-methyl-phenyl)-5-(trans-4-hydroxy-cyclohexyl)-1-isopropyl-2-(2-methoxy-phenyl)-5,6-dihydro-1H-pyrrolo[3,4-b]pyrrol-4-one] | 27 | 2990 | 31.9
3 | CNC(=O)c1ccc(OC)c(-c2cc3c(n2C(C)C)C(c2ccc(Cl)cc2C)N([C@H]2CC[C@H](O)CC2)C3=O)c1 (stereo partly drawn) [Example 102, 3-[6-(4-Chloro-2-methyl-phenyl)-5-(trans-4-hydroxy-cyclohexyl)-1-isopropyl-4-oxo-1,4,5,6-tetrahydro-pyrrolo[3,4-b]pyrrol-2-yl]-4-methoxy-N-methyl-benzamide] | 12.7 | 2380 | 13.6
4 | COc1ncc(-c2cc3c(n2C(C)C)C(c2ccc(Cl)cc2C)N([C@H]2CC[C@H](O)CC2)C3=O)c(OC)n1 (stereo partly drawn) [Example 103, 6-(4-Chloro-2-methyl-phenyl)-2-(2,4-dimethoxy-pyrimidin-5-yl)-5-(trans-4-hydroxy-cyclohexyl)-1-isopropyl-5,6-dihydro-1H-pyrrolo[3,4-b]pyrrol-4-one] | 20.7 | 4710 | 30.1
5 | COc1ncc(-c2cc3c(n2C(C)C)C(c2ccc(Cl)cc2C)N(C2CCOCC2)C3=O)c(OC)n1 (stereo not drawn) [Example 105, 6-(4-Chloro-2-methyl-phenyl)-2-(2,4-dimethoxy-pyrimidin-5-yl)-1-isopropyl-5-(tetrahydro-pyran-4-yl)-5,6-dihydro-1H-pyrrolo[3,4-b]pyrrol-4-one] | 10.2 | 6290 | 14.3
6 | CNC(=O)N1CCC(N2C(=O)c3cc(-c4cnc(OC)nc4OC)n(C(C)C)c3C2c2ccc(Cl)cc2)CC1 (stereo not drawn) [Example 107, 4-[6-(4-Chloro-phenyl)-2-(2,4-dimethoxy-pyrimidin-5-yl)-1-isopropyl-4-oxo-4,6-dihydro-1H-pyrrolo[3,4-b]pyrrol-5-yl]-piperidine-1-carboxylic acid methylamide] | 3 | 3640 | 2.69
7 | COc1nc(N)ncc1-c1cc2c(n1C(C)C)C(c1ccc(Cl)cc1)N(C1CCC(=O)N(C)C1)C2=O (stereo not drawn) [Example 108, 2-(2-Amino-4-methoxy-pyrimidin-5-yl)-6-(4-chloro-phenyl)-1-isopropyl-5-(1-methyl-6-oxo-piperidin-3-yl)-5,6-dihydro-1H-pyrrolo[3,4-b]pyrrol-4-one] | 3.3 | 9020 | 3.7
8 | COc1ncc(-c2cc3c(n2C(C)C)[C@H](c2ccc(Cl)cc2)N(c2cc(Cl)c(=O)n(C)c2)C3=O)c(OC)n1 [Example 121, (S)-5-(5-Chloro-1-methyl-6-oxo-1,6-dihydro-pyridin-3-yl)-6-(4-chloro-phenyl)-2-(2,4-dimethoxy-pyrimidin-5-yl)-1-isopropyl-5,6-dihydro-1H-pyrrolo[3,4-b]pyrrol-4-one] | 0.6 | 1060 | 0.087
9 | COc1nc(N(C)C)ncc1-c1cc2c(n1C(C)C)[C@H](c1ccc(C#N)cc1)N(c1cc(Cl)c[nH]c1=O)C2=O [Example 167, 4-[(S)-5-(5-Chloro-2-oxo-1,2-dihydro-pyridin-3-yl)-2-(2-dimethylamino-4-methoxy-pyrimidin-5-yl)-1-isopropyl-4-oxo-1,4,5,6-tetrahydro-pyrrolo[3,4-b]pyrrol-6-yl]-benzonitrile] | 0.8 | 716 | 0.161
